Where a name gives a salt, the structure may show the parent alone.
What was measured:
[1] = target: Beta Secretase enzyme (BACE) (Homo sapiens (Human), UniProt P56817); assay: In vitro enzymatic BACE FRET assay; format: biochemical; conditions: read-out: BACE1 Enzyme assay IC50
[2] = target: Cathepsin D (Cat D) (Homo sapiens (Human), UniProt P07339); assay: In vitro enzymatic Cathepsin D (Cat D) FRET assay; format: biochemical; conditions: read-out: CatD IC50
[3] = test system: Abeta 40; assay: In vivo inhibition of beta-secretase: Abeta 40 reduction in CSF and brain of the rat; conditions: after 4 hrs; for % reduction of rat CSF levels at 10 pmk / % reduction of rat CSF levels (3 mpk): Abeta 40 in rat CSF; for % reduction of rat CSF levels at 10 pmk / % reduction of rat brain levels at 10 mpk: 10 mpk; for % reduction of rat brain levels at 10 mpk / % reduction of rat brain levels (3 mpk): Abeta 40 in rat brain
[4] = target: BACE (Homo sapiens (Human), UniProt P56817); assay: In vitro BACE cell-based assay (Aβ40 in conditioned medium, sandwich ELISA)
BACE, sequence (P56817 46-501, species assumed): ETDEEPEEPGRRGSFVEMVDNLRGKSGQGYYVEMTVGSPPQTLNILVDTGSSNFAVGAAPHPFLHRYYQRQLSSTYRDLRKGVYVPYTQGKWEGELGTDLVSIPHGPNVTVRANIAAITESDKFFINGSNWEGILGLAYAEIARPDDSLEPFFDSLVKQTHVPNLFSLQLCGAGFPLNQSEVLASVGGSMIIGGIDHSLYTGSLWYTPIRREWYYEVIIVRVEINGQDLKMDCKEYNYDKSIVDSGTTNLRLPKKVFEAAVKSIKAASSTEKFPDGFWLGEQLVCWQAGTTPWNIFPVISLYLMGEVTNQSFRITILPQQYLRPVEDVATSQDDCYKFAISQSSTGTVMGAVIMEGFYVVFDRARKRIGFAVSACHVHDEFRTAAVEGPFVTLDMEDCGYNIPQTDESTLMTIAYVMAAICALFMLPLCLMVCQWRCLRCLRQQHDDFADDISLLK

Beta Secretase enzyme (BACE), sequence (P56817 46-501): as the sequence (P56817 46-501, species assumed) above
Cathepsin D (Cat D), sequence (P07339 65-412, species assumed): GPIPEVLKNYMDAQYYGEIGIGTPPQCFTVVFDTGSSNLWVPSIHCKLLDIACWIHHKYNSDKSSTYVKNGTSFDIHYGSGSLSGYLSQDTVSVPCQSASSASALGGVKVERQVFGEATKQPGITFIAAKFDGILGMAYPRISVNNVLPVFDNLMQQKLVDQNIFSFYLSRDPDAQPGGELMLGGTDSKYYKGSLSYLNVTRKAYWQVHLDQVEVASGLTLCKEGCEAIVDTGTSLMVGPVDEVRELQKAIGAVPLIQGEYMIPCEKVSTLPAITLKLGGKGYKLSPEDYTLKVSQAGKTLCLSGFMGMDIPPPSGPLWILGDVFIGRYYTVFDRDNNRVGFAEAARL

IC50 [1] | IC50 [2] | IC50 [4] | Compound | % reduction of rat CSF levels at 10 pmk [3] | % reduction of rat brain levels at 10 mpk [3] | % reduction of rat CSF levels (3 mpk) [3] | % reduction of rat brain levels (3 mpk) [3]
0.001 µM | 467 µM | 0.0033 µM | CC#CCOc1cnc(C(=O)Nc2ccc(F)c([C@@]3(C(F)F)N=C(N)O[C@@H]4C[C@@H]43)c2)cn1 [Example 96, N-(3-((1R,5S,6R)-3-amino-5-(difluoromethyl)-2-oxa-4-azabicyclo[4.1.0]hept-3-en-5-yl)-4-fluorophenyl)-5-(but-2-yn-1-yloxy)pyrazine-2-carboxamide trifluoroacetate] | 24% | 1% |  | 
0.0227 µM | 1050 µM | 0.0195 µM | NC1=N[C@@](c2cc(NC(=O)c3ccc(Cl)cn3)ccc2Cl)(C(F)F)[C@H]2C[C@H]2O1 [Example 99, N-(3-((1R,5S,6R)-3-amino-5-(difluoromethyl)-2-oxa-4-azabicyclo[4.1.0]hept-3-en-5-yl)-4-chlorophenyl)-5-chloropicolinamide] | 63% | 58% |  | 
0.0211 µM | 472 µM | 0.0053 µM | NC1=N[C@](CF)(c2cc(NC(=O)c3ccc(Cl)cn3)ccc2F)[C@H]2C[C@H]2O1 [Example 117, N-(3-((1R,5S,6R)-3-amino-5-(fluoromethyl)-2-oxa-4-azabicyclo[4.1.0]hept-3-en-5-yl)-4-fluorophenyl)-5-chloropicolinamide] | 78% | 71% |  | 
0.0395 µM | 997 µM | 0.0078 µM | N#Cc1cnc(C(=O)Nc2ccc(Cl)c([C@@]3(CF)N=C(N)O[C@@H]4C[C@@H]43)c2)c(Cl)c1 [Example 127] | 67% | 50% |  | 
0.0845 µM | 988 µM | 0.0586 µM | COc1ccc(C(=O)Nc2ccc(F)c([C@@]3(C(F)F)N=C(N)O[C@@H]4C[C@@H]43)c2)nc1 [Example 130, N-(3-((1R,5S,6R)-3-amino-5-(difluoromethyl)-2-oxa-4-azabicyclo[4.1.0]hept-3-en-5-yl)-4-fluorophenyl)-5-methoxypicolinamide] | 49% | 23% |  | 
0.0124 µM | 767 µM | 0.0103 µM | NC1=N[C@@](c2cc(NC(=O)c3cnc(OCc4ncco4)cn3)ccc2F)(C(F)F)[C@H]2C[C@H]2O1 [Example 167, N-(3-((1R,5S,6R)-3-amino-5-(difluoromethyl)-2-oxa-4-azabicyclo[4.1.0]hept-3-en-5-yl)-4-fluorophenyl)-5-(oxazol-2-ylmethoxy)pyrazine-2-carboxamide] | 60% | 41% |  | 
0.0233 µM | 925 µM | 0.0186 µM | NC1=N[C@@](c2cc(NC(=O)c3cnc(OCc4cocn4)cn3)ccc2F)(C(F)F)[C@H]2C[C@H]2O1 [Example 174, N-(3-((1R,5S,6R)-3-amino-5-(difluoromethyl)-2-oxa-4-azabicyclo[4.1.0]hept-3-en-5-yl)-4-fluorophenyl)-5-(oxazol-4-ylmethoxy)pyrazine-2-carboxamide] | 46% | 26% |  | 
0.0256 µM | 591 µM | 0.0079 µM | N#Cc1ccc(C(=O)Nc2ccc(F)c([C@@]3(CF)N=C(N)O[C@@H]4C[C@@H]43)c2)nc1 [Example 192, N-(3-((1R,5S,6R)-3-amino-5-(fluoromethyl)-2-oxa-4-azabicyclo[4.1.0]hept-3-en-5-yl)-4-fluorophenyl)-5-cyanopicolinamide] | 81% | 71% |  | 
0.0449 µM | 875 µM | 0.0108 µM | NC1=N[C@](CF)(c2cc(NC(=O)c3ncc(Cl)cc3Cl)ccc2F)[C@H]2C[C@H]2O1 [Example 193] | 75% | 67% |  | 
0.0022 µM | 959 µM | 0.0005 µM | CC#CCOc1cnc(C(=O)Nc2ccc(F)c([C@@]3(CF)N=C(N)O[C@@H]4C[C@@H]43)c2)cn1 [Example 199, N-(3-((1R,5S,6R)-3-amino-5-(fluoromethyl)-2-oxa-4-azabicyclo[4.1.0]hept-3-en-5-yl)-4-fluorophenyl)-5-(but-2-yn-1-yloxy)pyrazine-2-carboxamide] | 62% | 42% |  | 
0.0419 µM | 1010 µM | 0.0059 µM | N#Cc1cnc(C(=O)Nc2ccc(F)c([C@@]3(CF)N=C(N)O[C@@H]4C[C@@H]43)c2)c(Cl)c1 [Example 228, N-(3-((1R,5S,6R)-3-amino-5-(fluoromethyl)-2-oxa-4-azabicyclo[4.1.0]hept-3-en-5-yl)-4-fluorophenyl)-3-chloro-5-cyanopicolinamide] | 54% | 33% |  | 
0.0341 µM | 956 µM | 0.0064 µM | COc1cnc(C(=O)Nc2ccc(F)c([C@@]3(CF)N=C(N)O[C@@H]4C[C@@H]43)c2)c(Cl)c1 [Example 229, N-(3-((1R,5S,6R)-3-amino-5-(fluoromethyl)-2-oxa-4-azabicyclo[4.1.0]hept-3-en-5-yl)-4-fluorophenyl)-3-chloro-5-methoxypicolinamide] | 41% | 8% |  | 
0.0377 µM | 327 µM | 0.0323 µM | Cc1cc(OC(F)F)cnc1C(=O)Nc1ccc(F)c([C@@]2(C(F)F)N=C(N)O[C@@H]3C[C@@H]32)c1 [Example 237, N-(3-((1R,5S,6R)-3-amino-5-(difluoromethyl)-2-oxa-4-azabicyclo[4.1.0]hept-3-en-5-yl)-4-fluorophenyl)-5-(difluoromethoxy)-3-methylpicolinamide] | 72% | 67% |  | 
0.0214 µM | 5920 µM | 0.0178 µM | NC1=N[C@@](c2cc(NC(=O)c3cnc(OC(F)F)cn3)ccc2F)(C(F)F)[C@H]2C[C@H]2O1 [Example 238, N-(3-((1R,5S,6R)-3-amino-5-(difluoromethyl)-2-oxa-4-azabicyclo[4.1.0]hept-3-en-5-yl)-4-fluorophenyl)-5-(difluoromethoxy) pyrazine-2-carboxamide] | 8% | 16% |  | 
0.0441 µM | 2870 µM | 0.006 µM | NC1=N[C@](CF)(c2cc(NC(=O)c3ncc(Cl)cc3Cl)ccc2Cl)[C@H]2C[C@H]2O1 [Example 281, N-(3-((1R,5S,6R)-3-amino-5-(fluoromethyl)-2-oxa-4-azabicyclo[4.1.0]hept-3-en-5-yl)-4-chlorophenyl)-3,5-dichloropicolinamide] | 70% | 72% | 55 (3 mpk) % | 34 (3 mpk) %
0.031 µM | 1580 µM | 0.0075 µM | Cc1cc(C#N)cnc1C(=O)Nc1ccc(Cl)c([C@@]2(CF)N=C(N)O[C@@H]3C[C@@H]32)c1 [Example 283, N-(3-((1R,5S,6R)-3-amino-5-(fluoromethyl)-2-oxa-4-azabicyclo[4.1.0]hept-3-en-5-yl)-4-chlorophenyl)-5-cyano-3-methylpicolinamide] | 75% | 69% | 61 (3 mpk) % | 44 (3 mpk) %
0.0305 µM | 465 µM | 0.014 µM | COc1cnc(C(=O)Nc2cc(C)c(F)c([C@@]3(C(F)F)N=C(N)O[C@@H]4C[C@@H]43)c2)cn1 [Example 299, N-(3-((1R,5S,6R)-3-amino-5-(difluoromethyl)-2-oxa-4-azabicyclo[4.1.0]hept-3-en-5-yl)-4-fluoro-5-methylphenyl)-5-methoxypyrazine-2-carboxamide] | 74% | 62% |  | 
0.0315 µM | 811 µM | 0.0141 µM | Cc1cc(NC(=O)c2ncc(Cl)cc2F)cc([C@@]2(C(F)F)N=C(N)O[C@@H]3C[C@@H]32)c1F [Example 302, N-(3-((1R,5S,6R)-3-amino-5-(difluoromethyl)-2-oxa-4-azabicyclo[4.1.0]hept-3-en-5-yl)-4-fluoro-5-methylphenyl)-5-chloro-3-fluoropicolinamide] | 37% | 9% |  | 
0.0522 µM | 355 µM | 0.0359 µM | COc1ccc(C(=O)Nc2cc(C)c(F)c([C@@]3(C(F)F)N=C(N)O[C@@H]4C[C@@H]43)c2)nc1 [Example 304, N-(3-((1R,5S,6R)-3-amino-5-(difluoromethyl)-2-oxa-4-azabicyclo[4.1.0]hept-3-en-5-yl)-4-fluoro-5-methylphenyl)-5-methoxypicolinamide] | 41% | 20% |  | 
0.0419 µM | 1040 µM | 0.0256 µM | COc1cnc(C(=O)Nc2ccc(F)c([C@@]3(C(F)F)N=C(N)O[C@@H]4C[C@@H]43)c2)c(F)c1 [Example 306, N-(3-((1R,5S,6R)-3-amino-5-(difluoromethyl)-2-oxa-4-azabicyclo[4.1.0]hept-3-en-5-yl)-4-fluorophenyl)-3-fluoro-5-methoxypicolinamide] | 13% | −1% |  | 
